From paper PMC9131077, “Cytosolic Nudix Hydrolase 1 Is Involved in Geranyl β-Primeveroside Production in Tea” (Frontiers in Plant Science, 2022)

What was measured:
Assay in all cases: LC-MS/MS (MRM) of product GP
Type in all cases: biochemical
[1] = target: T1, CsNUDX1-cyto (Camellia sinensis, UniProt A0A4S4EYR7)
T1 construct: gene TEA_005538; full length, 156 residues; E. coli BL21 (DE3) Rosetta, pET15b, N-terminal His-tag, tested with and without tag

[2] = target: T2, CsNUDX1-chlo-Δ70 (Camellia sinensis, UniProt A0A4S4EZL9); conditions: hydrolysed to GP; transit peptide removed
T2 construct: gene TEA_000488; N-terminal 70-residue transit peptide removed from the 220-residue protein; E. coli BL21 (DE3) Rosetta, pET15b, N-terminal His-tag
T2 sequence (A0A4S4EZL9 entry or part of it, stated change not applied): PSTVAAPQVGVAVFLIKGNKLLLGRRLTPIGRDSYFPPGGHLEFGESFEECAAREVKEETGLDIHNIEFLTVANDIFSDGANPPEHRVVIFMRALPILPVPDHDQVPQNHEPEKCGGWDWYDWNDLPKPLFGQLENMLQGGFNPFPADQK

[3] = target: T3, AtNUDX1 (Arabidopsis thaliana, UniProt Q9CA40); conditions: hydrolysed to GP; His-tagged positive control
T3 construct: gene NUDT1; E. coli BL21 (DE3) Rosetta, His-tag kept
T3 sequence (Q9CA40 whole entry): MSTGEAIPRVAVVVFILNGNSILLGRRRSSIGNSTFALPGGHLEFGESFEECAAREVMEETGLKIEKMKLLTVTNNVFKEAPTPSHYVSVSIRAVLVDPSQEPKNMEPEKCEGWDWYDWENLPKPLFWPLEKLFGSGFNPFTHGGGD

T1 sequence (A0A4S4EYR7 1-156): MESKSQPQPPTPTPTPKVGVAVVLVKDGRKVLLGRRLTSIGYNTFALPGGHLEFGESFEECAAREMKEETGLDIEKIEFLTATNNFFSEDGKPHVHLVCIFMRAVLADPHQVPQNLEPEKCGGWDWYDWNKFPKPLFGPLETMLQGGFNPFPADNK

| SMILES | LC-MS/MS (MRM) of product GP ([1]; from GPP) | LC-MS/MS (MRM) of product GP ([1]; hydrolysed to GP, with and without His-tag) | LC-MS/MS (MRM) of product GP [2] | LC-MS/MS (MRM) of product GP [3] |
| --- | --- | --- | --- | --- |
| CC(C)=CCC/C(C)=C/COP(=O)(O)O [geranyl monophosphate] | GP was verified in vitro as the direct chemical product of CsNUDX1-cyto |  |  |  |
| CC(C)=CCC/C(C)=C/COP(=O)(O)OP(=O)(O)O [geranyl pyrophosphate] |  | CsNUDX1-cyto possessed a stronger GPP to GP hydrolysis activity than the Arabidopsis AtNUDX1 | exhibited an increased activity compared to the full length CsNUDX1-chlo | stronger GPP to GP hydrolysis activity than the Arabidopsis AtNUDX1 |
